The text below walks through data of PMC12074479, “Design, Synthesis, and Biological Evaluation of New Analogs of Aurein 1.2 Containing Non-Proteinogenic Amino Acids” (Molecules, 2025).

Where no end group is shown, it is not given here.

Series [1] concerns Bacillus subtilis NBIMCC 3562. Conditions: broth microdilution, 0–320 µg/mL, 24 h; NI = no inhibition monitored. How it is done:
(§1) The antimicrobial activity of the 7 new analogs of aurein 1.2 was evaluated by determining the MIC and MBC against Gram-positive strain Bacillus subtilis 3562 and Gram-negative strain Escherichia coli K12 407. The MIC of the newly synthesized analogs was assessed by applying a broth microdilution method, whereas their MBC was determined by using a spread plate method. All experiments were performed in triplicate.
(§2) Bacillus subtilis NBIMCC 3562 and Escherichia coli NBIMCC K12 407 were used as test microorganisms and were purchased from the National Bank for Industrial Microorganisms and Cell Cultures (NBIMCC, Sofia, Bulgaria). Exponential cultures were obtained in Nutrient broth (NB, HiMedia, Mumbai, India) for B. subtilis NBIMCC 3562 and Luria-Bertani (LB, HiMedia, Mumbai, India) for E. coli NBIMCC K12 407, after cultivation in an incubator shaker ES-20/60 (Biosan, Latvia) at 30/37 °C for 24 h. Then, the turbidity of the microbial cultures was adjusted to the 0.5 McFarland standard using a Grant Bio DEN-1B Densitometer (Grant Instruments, Royston, UK).
(§3) The antimicrobial activity of the obtained aurein 1.2 analogs was evaluated using the broth microdilution method, recommended by the Clinical and Laboratory Standards Institute (CLSI), to determine the minimum inhibitory concentration (MIC) of the peptides against B. subtilis NBIMCC 3562 and E. coli NBIMCC K12 407. All peptides were previously dissolved in 10% EtOH/H2O, and their 10 mg/mL stock solutions were stored at −20 °C. Bacterial cultures, previously adjusted to 0.5 McFarland standard, were incubated in the presence of different peptide concentrations (0–320 µg/mL) in 96-well polystyrene microplates (Deltalab S.L., Barcelona, Spain) at 30/37 °C for 24 h. The lowest concentration of each peptide, which inhibited bacterial growth, was considered as MIC. In addition, a drop of 20 µL of the 24 h inhibitory concentration test samples was spotted on the corresponding solid media to determine the minimum bactericidal concentration (MBC). […] All experiments were performed in triplicate.

The test system of series [2] is Escherichia coli NBIMCC K12 407. Conditions: broth microdilution, 0–320 µg/mL, 24 h; NI = no inhibition monitored. How it is done:
as §1, §2, §3

Another series deals with MCF-12F. Kind of series: cells. Conditions: read-out: Mean IC50 ± SD, MCF-12F; MTT, 72 h, normal cell line. As for the experimental part: (§4) The peptides were studied for antiproliferative activity with an MTT-dye reduction assay. Cell cultures were incubated with the test peptides in twofold increasing concentrations (from 2 to 500 μM) for 72 h.
(§5) The antiproliferative activity of the peptides was determined in normal epithelial cells (MCF-12F) and tumor cells (MCF-7 and MDA-MB-231) by MTT-assay. Cells were plated 1 × 10^3 cells/100 µL/well of 96-well plates and incubated in a thermostat under standard conditions for 24 h. Cells were then incubated with the tested peptide analogs for 72 h in different concentrations (from 2 to 500 µM). The optical density of the formazan was measured at λ = 540 nm using a microplate reader. Antiproliferative activity was expressed as % from negative control. […] The statistical analysis of the results was performed using one-way ANOVA followed by Bonferroni’s post hoc test by GraphPad Prism 8 software (San Diego, CA, USA).

A further series deals with MDA-MB-231. The series can be described thus: cells. Conditions: read-out: Mean IC50 ± SD, MDA-MB-231; MTT, 72 h. How it is done: as §4, §5
For the next series, the system named is MCF-7. The series can be described thus: cells. The note with it: read-out: Mean IC50 ± SD, MCF-7; MTT, 72 h. How it is done: as §4, §5
The test system of a further series is BALB 3T3 cells. Kind of series: BALB 3T3 Neutral Red Uptake cytotoxicity/phototoxicity test. The note with it: PIF = (CC50 −Irr)/(CC50 +Irr); PIF < 2 not phototoxic, 2 < PIF < 5 possible phototoxicity, PIF > 5 phototoxic. How it is done: (§6) An in vitro BALB 3T3 Neutral Red Uptake assay was used to determine the cytotoxicity/phototoxicity of the peptides. Cytotoxicity of peptide analogs was calculated as a percentage relative to the negative control. […] Photo irritation factor (PIF) was used to assess the phototoxic potential of the peptide analogs. The PIF factor represents the ratio between the CC50 values of dark (non-irradiated or—Irr) and irradiated (+Irr) microplates, PIF = (CC50 − Irr)/(CC50 + Irr).
(§7) Mouse embryonic fibroblasts (BALB 3T3) were used to perform the cytotoxicity and phototoxicity tests. The tests were performed by OECD Guidelines for the Testing of Chemicals, Section 4, Test No. 432. Cells were plated at 1 × 10^4 cells/well in 96-well plates. Cells were incubated in a thermostat for 24 h. Then, the test peptides were added at various working concentrations (4–1000 μM). In the phototoxicity test, 96-well plates were irradiated with a dose of 2.4 J/cm^2 using a solar light simulator Helios-iO (SERIC Ltd., Tokyo, Japan). Cell viability was measured using the BALB 3T3 neutral red uptake test. Cytotoxicity is presented as % relative to the negative control.

Test in series [3]: as above
Conditions: mouse, Mean CC50 ± SD, BALB 3T3 cells. How it is done:
as §6, §7

On to “GLFDIIKKIAESF-NH2 [Aurein 1.2, Gly^1-Leu^2-Phe^3-Asp^4-Ile^5-Ile^6-Lys^7-Lys^8-Ile^9-Ala^10-Glu^11-Ser^12-Phe^13-NH2]”, for which the “MIC, Bacillus subtilis NBIMCC 3562” value in series [1] is 160 mg/L. Also, the “MIC, Escherichia coli NBIMCC K12 407” value in series [2] stood at 40 mg/L. The IC50 is 71.4 ± 2.88 µM in the series with MCF-12F, 70.9 ± 2.06 µM in the series on MDA-MB-231 and 68.9 ± 2.12 µM in the series with MCF-7. Also, the “PIF (Photo Irritation Factor)” value with BALB 3T3 cells was 1. Further, the CC50 amounted to 87.2 ± 1.88 µM in series [3] (+Irr, irradiated 2.4 J/cm^2, NRU) and 87.6 ± 2.45 µM in series [3] (−Irr, non-irradiated (dark), NRU).
